Reference: patent US12570957B2, “Isolated naive pluripotent stem cells and methods of generating same” (Yeda Research and Development Co. Ltd., priority 2013, dated 2026)

Assays:
Test in all cases: Pluripotency maintenance after supplementation of inhibitors or growth factors
naive hESCs/hiPSCs = assay type: cell-based; conditions: naive human cells in WIS-NHSM
Procedure: (§1) Shown are histograms depicting colony formation of pluripotent cell lines in various media. Cell populations were equally divided and plated on gelatin/vitronectin coated plates in the indicated growth medium in which these cell lines are normally maintained (mouse naive cells in a medium containing 2i/LIF, naive hESCs/iPSCs in a WIS-NHSM medium, mouse EpiSCs and human primed ESCS/iPSCs in a KSR/bFGF/TGFβmedium). 36 hours later the wells were supplemented with the indicated inhibitors or growth factors. After 14 days (2 passages), wells were analyzed for Oct4-GFP pluripotency marker expression by FACS, to determine the relative percentage of pluripotent colonies. Pluripotent cell frequency was normalized to an internal control, as indicated by “Growth medium” only on the far left column (For naive cells growth medium was WIS-NHSM, and for primed cells was conventional KSR/bFGF/TGFβcontaining medium as specified in methods). […]
(§2) FIGS. 108A-108C—Signaling and functional characteristics of human naive pluripotency. […] After 14 days (2 passages), wells were analyzed by OCT4 immunostaining of direct detection of OCT4-GFP pluripotency reporter expression, to determine the relative percentage of undifferentiated pluripotent cells. […] After 20 days, colonies positive for OCT4 pluripotency markers were counted and normalized to colonies from cells electroporated with empty vector. […]

primed hESCs/hiPSCs = assay type: cell-based; conditions: primed human cells
Procedure: as §1, §2

naive mESCs = assay type: cell-based, mouse; conditions: mESCs in 2i/LIF
Procedure: as §1, §2

CC(C)(C)c1nc2c3ccc(F)cc3c3c(=O)[nH]ccc3c2[nH]1 [JAKi]
response of pluripotent state (naive hESCs/hiPSCs): differentiated
response of pluripotent state (primed hESCs/hiPSCs): resistant
response of pluripotent state (naive mESCs): readily differentiate
